According to patent publication US20250387388A1, “COMPOUND AS TRK INHIBITOR AND/OR RET INHIBITOR AND USE THEREOF” (Medinno Pharmaceutical Technology (Zhuhai) Co., Ltd., priority 2022, published 2025):

How the values were obtained:
[1] = test system: external hemorrhoids in rats; assay: External hemorrhoid model in rats (acetic acid); format: in vivo, SD rats
Source text: • (1) Blank control group (7 rats) • (2) Hemorrhoid model group (10 rats) • (3) Hemorrhoid model group+positive control drug (Mayinglong Hemorrhoid Ointment) group (8 rats) • (4) Hemorrhoid model group+vehicle treatment (Gel excipient) (8 rats) • (5) Hemorrhoids model group+0.1% MDI-1228 gel preparation group (8 rats) • (6) Hemorrhoids model group+0.3% MDI-1228 gel preparation group (8 rats) • (7) Hemorrhoids model group+1% MDI-1228 gel preparation group (8 rats) • (8) Hemorrhoids model group+3% MDI-1228 gel preparation group (8 rats) • Experimental environment: Temperature 20° C.-26° C., humidity 40%-70%
Apart from the normal control group, all groups were treated by first disinfecting the perianal skin. A 75% acetic acid solution was prepared and injected subcutaneously in a scattered pattern around the anus of each rat at a dose of 0.05 ml.
The recipe and preparation method for 1% MDI-1228 gel were as follows:
The control group and model group received no treatment (no therapy). Administration begined 24 hours after the model induction was successful. Group 3) was administrated with Mayinglong Hemorrhoid Ointment (7.5 g/Kg), three times, 10 min each time; Group 4) was administrated with a blank gel forming agent (1 g/Kg) around the anus; Groups 5)-8) were administrated with different concentrations of MDI-1228 compound gel preparation (1 g/Kg) around the anus, twice daily, 10 min each time, followed by covering with plastic wrap and fixing with tape to prevent the drug from falling off and affecting efficacy. After 6 hours, the dressing was removed, and the application site was cleaned with normal saline. The administration was continued for 11 days.
Observe the healing of the ulcer site on days 3, 5, 7, 9, and 11 of administration, and assess the ulcer score (scoring criteria: ulcer exudate present=1 point; minimal ulcer exudate=2 points; scab present, nearly healed=3 points; completely healed=4 points).
On an 11-day administration, animals were euthanized by inhalation of excess carbon dioxide, and perianal rectal tissue was taken for HE staining, and serum was taken for ELISA detection.
Tissue samples from animal Rectal were excised, fixed in 10% neutral formalin buffer solution, dehydrated, embedded in paraffin, and sectioned and HE stained for observation of rectal histopathological morphology changes. The reagents and instruments required for HE staining included: Hematoxylin staining solution (AR11800-1, BOSTER); Eosin staining solution (AR11800-2, BOSTER); Ultra-clean advanced mounting medium (YZB, BASO); Scott's blueing solution (G1865, Solarbio), etc. Medication refrigerator (BYC-310, Shandong Bokai Biotech); Microscope (CX41 OLYMPUS); Microtome (BQ-318D, Berne); Electric heating blast drying oven (DHG-9070A, Hengke Scientific Instrument Co., Ltd.). The taken tissue was rinsed with running water for several hours, dehydrated through a series of ethanol solutions (70%, 80%, 90%), and then treated with a mixture of pure alcohol and xylene at a ratio of 1:1 for 15 minutes, followed by xylene I for 15 minutes and xylene II for 15 minutes (until transparent). The tissue was then placed in a mixture of xylene and paraffin at a ratio of 1:1 for 15 minutes, followed by immersion with paraffin I and paraffin 11 each for 50-60 minutes. The tissue was embedded in paraffin and sectioned, and the sections were dried, dewaxed and hydrated in distilled water. […]

alopecia areata in mice = assay: Alopecia areata model in mice (imiquimod); format: in vivo, C3H/HeJ mice
Procedure: • Blank control group (no treatment) (N=5) • Blank alopecia areata model group (no treatment) (N=8) • Alopecia areata model+blank excipient group (vehicle treatment: blank gel preparation, dose: 1.5 g/kg per mouse, twice daily per mouse) (N=8) • Alopecia areata model+positive control drug group (compound Betamethasone cream (corticosteroid), twice daily, 50 mg each time per mouse) (N=8) • Alopecia areata model+0.5% MDI-1228 compound gel preparation group (dose: 1.0 g/kg per mouse, twice daily per mouse) (N=8) • Alopecia areata model+1% MDI-1228 compound gel preparation group (dose: 1.5 g/kg per mouse, twice daily per mouse) (N=8) • Alopecia areata model+3% MDI-1228 compound gel preparation group (dose: 1.5 g/kg per mouse, twice daily) (N=8) • Blank alopecia areata model (vehicle treatment: 5% DMSO+75% PEG300+20% EtOH) (N=8)
Modeling: Imiquimod cream was applied to the nape of the animals (no hair removal required), three times a week for three consecutive weeks. The control group was treated with a blank excipient without imiquimod. Each time, a clean medical cotton swab was used to apply approximately 0.03 g of imiquimod evenly over an area of about 1 cm×1 cm, and the application site was cleaned with normal saline before each application. The operation was performed gently to avoid skin abrasions or mechanical hair loss due to friction. […] During the modeling, the hair loss of the mice was recorded.
The blank control group (untreated) received no treatment; the drug groups were treated with the corresponding doses of compound betamethasone cream, blank gel preparation, and MDI-1228 compound gel preparation applied to the skin, twice daily (at 9 AM and 5 PM, with an interval of at least 6 hours). Note: To prevent animals from licking the medication off each other, after the gel was applied, the animals were placed individually in a pad-free independent cage to move around for a period of time to allow the gel to air dry for 1 hour before being returned to the normal feeding cage. Single housing is discouraged as it can lead to depression; wrapping the application area with gauze is also prohibited as it can absorb the medication.
During the treatment period, the local changes in the hair loss area of the mice were observed, and the hair growth and adverse reactions were recorded in detail, and scores were assigned according to the following table.
The reagents and instruments required for HE staining included: Hematoxylin staining solution (AR11800-1, BOSTER); Eosin staining solution (AR11800-2, BOSTER); Ultra-clean advanced mounting medium (YZB, BASO); Scott's blueing solution (G1865, Solarbio), etc. Medication refrigerator (BYC-310, Shandong Bokai Biotech); Microscope (CX41 OLYMPUS); Microtome (BQ-318D, Berne); Electric heating blast drying oven (DHG-9070A, Hengke Scientific Instrument Co., Ltd.). The taken tissue was rinsed with running water for several hours, dehydrated through a series of ethanol solutions (70%, 80%, 90%), and then treated with a mixture of pure alcohol and xylene at a ratio of 1:1 for 15 minutes, followed by xylene I for 15 minutes and xylene II for 15 minutes until transparent. The tissue was then placed in a mixture of xylene and paraffin at a ratio of 1:1 for 15 minutes, followed by immersion with paraffin I and paraffin II each for 50-60 minutes. The tissue was embedded in paraffin and sectioned.

In the case of CCc1cc(O)c(F)cc1-c1ccc2c(-c3nc4c([nH]3)CN(C(=O)N3CC[C@H](O)C3)C4)n[nH]c2c1 [MDI-1228, (S)-(2-(6-(2-ethyl-5-fluoro-4-hydroxyphenyl)-1H-indazol-3-yl)-4,6-dihydropyrrolo[3,4-d]imidazol-5-(1H)-yl)(3-hydroxylpyrrolidin-1-yl)ketone], the “TNF-α expression in blood (ELISA)” value ([1]; 0.1%, 0.3%, 1%, 3% MDI-1228 gel, positive control drug, vs. model group) is reported as “could all downregulate the expression of TNF-α”, the “Perianal ulcer healing score” value ([1]; 1% MDI-1228 gel 1 g/Kg twice daily, vs. model group) is reported as “significant therapeutic effect after a 7-days administration” and the “Perianal rectal tissue HE staining pathological score” value ([1]; 3% MDI-1228 gel) is reported as “the best effect”. For the same compound, the “Perianal rectal tissue HE staining pathological score” value ([1]; MDI-1228 gel at concentrations of 0.3% or more) was “more significant”, the “Alleviation and treatment of external hemorrhoids” value ([1]; MDI-1228 gel preparations at different concentrations) was “can effectively alleviate and treat external hemorrhoids in rats” and the “Skin HE staining (hair follicles)” value (alopecia areata in mice; 0.5%, 1%, 3% MDI-1228 gel) was “some therapeutic effect”. For the same compound, the “Area under the curve (AUC) of hair growth scores” value (alopecia areata in mice; 0.5%, 1%, 3% MDI-1228 gel twice daily, vs. blank gel group) was “significantly promoted hair growth in alopecia areata animals”, the “Hair growth scores after 21 days” value (alopecia areata in mice; 3% MDI-1228 gel) was “the best effect” and the “Hair growth scores after 21 days” value (alopecia areata in mice; all MDI-1228 treatment groups (0.5%, 1%, 3% gel), vs. model group) was “significantly higher than the model group”. For the same compound, the “Symptoms of alopecia areata (conclusion)” value (alopecia areata in mice; mouse, in vivo) was “can improve the symptoms of alopecia areata in mice to a certain extent”.
